Measured values from US20260166182A1, “CYANINE-BASED FLUOROPHORES” (The General Hospital Corporation, priority 2022, published 2026).
“Also recorded” adds a separate entry of the source.

Legend:
[1] = In vivo biodistribution and pharmacokinetics in CD-1 mice; design: species or system mouse
Text: In vivo biodistribution and pharmacokinetics of SH dyes: Animals were housed in an AAALAC-certified facility and were studied under the supervision of MGH IACUC in accordance with the approved institutional protocol. Six-week-old CD-1 mice (male; 25-30 g) were purchased from Charles River Laboratories (Wilmington, MA). Mice were maintained under anesthesia with isoflurane and oxygen during the preparation prior to injection. The end of the tail was cut for blood collection. Before injection, blood was sampled in capillary tubes (Fisher Scientific, Pittsburgh, PA) as a reference. […] Mice were imaged using the in-house built NIR-II imaging system. After 24 h post-injection, mice were sacrificed to image organs. At least 3 mice were analyzed for each sample. Results were presented as an exponential decay curve using Prism software version 9.0.2 (GraphPad, San Diego, CA).

[2] = Photostability under xenon lamp irradiation; assay type: physicochemical; conditions: 2 h
Experimental: Optical Study, Photostability, Physicochemical Properties, and DFT Calculation: 1 mM stock solution in DMSO of the synthesized fluorophores was prepared before starting any spectral measurement. Optical properties for the synthesized fluorophores were measured in four different solvents (EtOH, DMSO, HEPES, and PBS). Absorbance spectra were measured in a Varian Cary 50 absorbance spectrophotometer (190-1100 nm). Fluorescence emission and photostability were measured and emission spectra were recorded on a Shimadzu RF-5301PC spectrofluorometer. Physicochemical properties (Log D, molecular mass, TPSA, H bond D/A, polarizability, molecular volume, and rotatable bonds) were predicted by ChemAxon (JChem plugin). Theoretical calculations of frontier molecular orbitals (FMOs) for the optimized structures of selected fluorophores were calculated based on DFT calculations at the B3LYP/6-311G(d,p) level.
In consideration of theranostic (therapeutics and diagnostic) applications, NIR cyanine fluorophores are synthesized for fluorescence imaging, photodynamic therapy (PDT), photothermal therapy (PTT), optoacoustic imaging, and cancer immunotherapy. One of the approaches before using these fluorophores in those applications is to study their biodistribution and clearance pattern in vivo. […] The power density of 150 W is much higher than the required power for fluorescence imaging, considering that the time it takes for a fluorophore to clear from the background and accumulate in sufficient quantities in the targeted tissues is unknown. […] By considering this, an aliquot of the stock solution (1 mM in DMSO) was diluted in ethanol, and the fluorescence intensity was measured at the excitation wavelength same as their absorption maxima (nm). Photodegradation rates were measured every 20 min intervals for the selected fluorophores based on the % reduced fluorescence intensity starting from 100%. […] The data were collected in every 20 min intervals under continuous irradiation with a xenon lamp at 150 W for 2 h and presented based on the % reduced fluorescence intensity starting from 100%. […]

[3] = In vivo biodistribution study of NIR fluorophores in CD-1 mice; design: species or system mouse; conditions: 25 nmol intravenous, 4 h post-injection; listed as 18
Experimental: In Vivo Biodistribution Study of NIR Fluorophores: Under the supervision of the MGH IACUC, animals were housed in an AAALAC-certified facility and studied according to institutional protocol #2016N000136. In preparation for injection, CD-1 mice (25-30 g, 6 weeks, Charles River Laboratories, Wilmington, MA) were anesthetized with isoflurane and oxygen. A 10 mM stock solution of NIR fluorophores was prepared in DMSO, and 25 nmol of each molecule was diluted in BSA-containing saline (5 wt/v %) for intraoperative imaging. After 4 h post-injection, mice were imaged. For each experiment, camera exposure time and image normalization were held constant.
Quantitative Analysis: The fluorescence and background intensity of a region of interest (ROI) over each tissue was quantified using ImageJ software (NIH, Bethesda, MD) version 1.45q. The signal-to-background ratio (SBR) was calculated as SBR=fluorescence/background, where background is the signal intensity of neighboring tissues such as muscle. All NIR fluorescence images for a particular fluorophore were normalized identically for all conditions of an experiment.

[4] = system: LLC tumor; test: Tumor histopathology with NIR fluorescence microscopy of resected LLC tumors; assay type: in vivo, mouse; conditions: histological NIR images
Experimental: Tumor histopathology evaluation: […] After rinsing with PBS, the fixed sections were counterstained with nuclear fast red, dehydrated by ethanol, transferred into xylene, and finally mounted according to the standard protocol. To determine the tissue distribution of the NIR fluorophore, the dissected tissues were embedded in Tissue-Tek optimum cutting temperature compound (Sakura Finetek, Torrance, CA) without a pre-fixation step. The tissue block was frozen at −80° C. Frozen sections were cut at a thickness of 10 or 50 μm by a cryostat (Leica, Germany). Then, the tissue sections were stained with hematoxylin and eosin (H&E). The BioTek Cytation 5 (Winooski, VT) was used for pathological fluorescence imaging and observation.

CCCCN1/C(=C/C=C2\CCCC(/C=C/C3=[N+](CCCC)c4ccc(Cl)cc4C3(C)C)=C2Cl)C(C)(C)c2cc(Cl)ccc21 [SH1, 1-butyl-2-((E)-2-((E)-3-(2-((E)-1-butyl-5-chloro-3,3-dimethylindolin-2-ylidene)ethylidene)-2-chlorocyclohex-1-en-1-yl)vinyl)-5-chloro-3,3-dimethyl-3H-indol-1-ium]
pharmacokinetic model ([1]; 1 μmol/kg intravenous): one-compartment model | time to complete distribution ([1]; 1 μmol/kg intravenous): ≤ 24 h | organ distribution ([1]; 24 h post-injection): major distribution in the liver and spleen | half-life ([1]; male, CD-1, mouse, whole blood, 1 umol/kg, 1 μmol/kg intravenous, read-out: elimination blood half-life t½ (converted)): 5.39 ± 1.53 h | photodegradation (% reduced fluorescence intensity) [2]: I-4 | tissue/organ signals [3]: high signals in the primary and secondary lymphoid tissues; also recorded: higher signals in the bone marrow, spleen, and lymph nodes | fluorescence signal location in resected tumor [4]: strong fluorescence signals in the targeted tumor
